{"source": "paper PMC1968602", "about": "(British Journal of Cancer, 1993)", "key": {"advanced lung cancer": {"tested_on": "advanced lung cancer", "experiment": "Tumour response (World Health Organization criteria) to CPT-11 plus cisplatin", "assay_type": "in vivo, human", "protocol": "(§1) All subjects gave written informed consent to the study. […] No intrapatient dose escalation was performed. […] Bone marrow aspiration was also performed in SCLC patients. […] Arrows indicate the com- pletion of infusion."}, "[1]": {"tested_on": "patients with advanced NSCLC", "conditions": "ref Masuda et al., 1992b, cited from earlier work"}, "[2]": {"experiment": "Plasma pharmacokinetics of CPT-11 and SN-38 (HPLC), day 8 of first cycle", "protocol": "as §1"}, "[3]": {"tested_on": "patients with advanced lung cancer"}, "[4]": {"conditions": "ref Negoro et al., 1991a, cited from earlier work; for AUC of CPT-11: single agent weekly infusion"}, "[5]": {"tested_on": "diarrhea induced by this combination regimen", "experiment": "Antidiarrheal treatment of diarrhea induced by CPT-11 plus cisplatin", "assay_type": "in vivo, human", "conditions": "for response of grade 3 diarrhea to antidiarrheal agent: diarrhea at CPT-11 90 mg m-2 plus cisplatin 60 mg m-2", "protocol": "as §1"}, "[6]": {"conditions": "dose level 1 (CPT-11 60 mg m-2), individual responders"}, "[7]": {"conditions": "dose level 2 (CPT-11 80 mg m-2)"}, "[8]": {"conditions": "dose level 3 (CPT-11 90 mg m-2), one responder"}, "[9]": {"conditions": "CPT-11 60 mg m-2 plus cisplatin 60 mg m-2, 3 patients"}, "[10]": {"conditions": "CPT-11 80 mg m-2 plus cisplatin 60 mg m-2"}, "[11]": {"conditions": "CPT-11 80 mg m-2 plus cisplatin 60 mg m-2, 8 patients"}, "[12]": {"conditions": "CPT-11 90 mg m-2 plus cisplatin 60 mg m-2"}, "[13]": {"conditions": "CPT-11 plus cisplatin 60 mg m-2, 28-day cycle"}, "[14]": {"conditions": "all dose levels, CPT-11 plus cisplatin 60 mg m-2"}}, "note": "Where “and” joins values, the source holds several entries; their conditions need not be identical. Equal values may be shown once. Read-outs that look alike come from different tables or passages of the source.", "data": [{"compound": "CCc1c2c(nc3ccc(OC(=O)N4CCC(N5CCCCC5)CC4)cc13)-c1cc3c(c(=O)n1C2)COC(=O)[C@]3(O)CC", "note": "[CPT-11, Irinotecan]", "values": [{"measurement": "patients showing disease progression", "setting": "advanced lung cancer; all 14 patients", "value": "none"}, {"measurement": "patients showing no change", "setting": "advanced lung cancer; all 14 patients", "value": "Eight"}, {"measurement": "overall response rate", "setting": "advanced lung cancer; all 14 patients, CPT-11 60-90 mg m-2 plus cisplatin 60 mg m-2", "value": 43, "unit": "%"}, {"measurement": "Response duration", "setting": "advanced lung cancer; [6]", "value": "85 days and 170 days"}, {"measurement": "Time to remission", "setting": "advanced lung cancer; [6]", "value": "42 days and 44 days"}, {"measurement": "No. of responders (%), response rate", "setting": "advanced lung cancer; dose level 1: CPT-11 60 mg m-2 plus cisplatin 60 mg m-2, two of three patients", "value": 67, "unit": "%"}, {"measurement": "Response duration, median (range)", "setting": "advanced lung cancer; [7]", "value": "158 (92-208) days"}, {"measurement": "Time to remission, median (range)", "setting": "advanced lung cancer; [7]", "value": "41 (30-42) days"}, {"measurement": "No. of responders (%), response rate", "setting": "advanced lung cancer; dose level 2: CPT-11 80 mg m-2 plus cisplatin 60 mg m-2, three of eight patients", "value": 38, "unit": "%"}, {"measurement": "Response duration", "setting": "advanced lung cancer; [8]", "value": 98, "unit": "days"}, {"measurement": "Time to remission", "setting": "advanced lung cancer; [8]", "value": 30, "unit": "days"}, {"measurement": "No. of responders (%), response rate", "setting": "advanced lung cancer; dose level 3: CPT-11 90 mg m-2 plus cisplatin 60 mg m-2, one of three patients", "value": 33, "unit": "%"}, {"measurement": "partial responses", "setting": "advanced lung cancer; five of 14 patients", "value": 36, "unit": "%"}, {"measurement": "response rate for NSCLC", "setting": "advanced lung cancer; four of 12 patients", "value": 33, "unit": "%"}, {"measurement": "complete response", "setting": "advanced lung cancer; one of 14 patients", "value": 7, "unit": "%"}, {"measurement": "complete response, stage IIIB disease", "setting": "advanced lung cancer; one of seven patients", "value": 14, "unit": "%"}, {"measurement": "overall response rate, stage IIIB disease", "setting": "advanced lung cancer; seven patients", "value": 43, "unit": "%"}, {"measurement": "partial response, stage IV disease", "setting": "advanced lung cancer; three of seven patients", "value": 43, "unit": "%"}, {"measurement": "Response duration, median (range)", "setting": "advanced lung cancer; total, all dose levels", "value": "128 (85-208) days"}, {"measurement": "Time to remission, median (range)", "setting": "advanced lung cancer; total, all dose levels", "value": "42 (30-44) days"}, {"measurement": "partial responses, stage IIIB disease", "setting": "advanced lung cancer; two of seven patients", "value": 29, "unit": "%"}, {"measurement": "response rate for SCLC", "setting": "advanced lung cancer; two of two patients", "value": 100, "unit": "%"}, {"measurement": "response rate", "setting": "[1]; CPT-11 days 1, 8, 15 combined with 80 mg m-2 cisplatin day 1, 4-week intervals, advanced NSCLC", "value": 54, "unit": "%"}, {"measurement": "dose-limiting toxicities", "setting": "[1]; combined with 80 mg m-2 cisplatin", "value": "leukopenia and diarrhea"}, {"measurement": "recommended dose of CPT-11", "setting": "[1]; in combination with 80 mg m-2 of cisplatin, days 1, 8, 15", "value": 60, "unit": "mg m-2"}, {"measurement": "Elimination of CPT-11 from plasma", "setting": "[2]; after completion of infusion, two-compartment model", "value": "biphasic"}, {"measurement": "Grade 3 leukopenia, percentage of courses", "setting": "[3]; CPT-11 60 mg m-2 plus cisplatin 60 mg m-2", "value": 33, "unit": "%"}, {"measurement": "ECOG grade 3 or 4 diarrhea: number of patients exhibiting toxicity in the first course", "setting": "[3]; [9]", "value": 0}, {"measurement": "ECOG grade 3 or 4 leukopenia: number of patients exhibiting toxicity in the first course", "setting": "[3]; [9]", "value": 2}, {"measurement": "ECOG grade 3 or 4 diarrhea: no. of courses exhibiting toxicity in all courses", "setting": "[3]; CPT-11 60 mg m-2 plus cisplatin 60 mg m-2, 9 courses", "value": 0}, {"measurement": "Grade 3 leukopenia, percentage of courses", "setting": "[3]; [10]", "value": 15, "unit": "%"}, {"measurement": "grade 4 diarrhea", "setting": "[3]; [10]", "value": "no grade 4 diarrhea"}, {"measurement": "ECOG grade 3 or 4 diarrhea: number of patients exhibiting toxicity in the first course", "setting": "[3]; [11]", "value": 2}, {"measurement": "ECOG grade 3 or 4 leukopenia: number of patients exhibiting toxicity in the first course", "setting": "[3]; [11]", "value": 2}, {"measurement": "ECOG grade 3 or 4 diarrhea: no. of courses exhibiting toxicity in all courses", "setting": "[3]; CPT-11 80 mg m-2 plus cisplatin 60 mg m-2, 20 courses", "value": 3}, {"measurement": "skin rash (grade 1), number of patients", "setting": "[3]; CPT-11 80 mg m-2 plus cisplatin 60 mg m-2, forced cessation of CPT-11 on day 15", "value": "one"}, {"measurement": "grade 3 diarrhea, percentage of cycles", "setting": "[3]; CPT-11 80 mg m-2 plus cisplatin 60 mg m-2, three of 20 cycles", "value": 15, "unit": "%"}, {"measurement": "grade 3 diarrhea, percentage of patients", "setting": "[3]; CPT-11 80 mg m-2 plus cisplatin 60 mg m-2, two of eight patients", "value": 25, "unit": "%"}, {"measurement": "dose-limiting toxicity", "setting": "[3]; CPT-11 90 mg m-2 dose level plus cisplatin 60 mg m-2", "value": "diarrhea"}, {"measurement": "Grade 3 leukopenia, percentage of courses", "setting": "[3]; [12]", "value": 0, "unit": "%"}, {"measurement": "duration of grade 3 diarrhea", "setting": "[3]; [12]", "value": "2 to 3", "unit": "weeks"}, {"measurement": "grade 4 diarrhea", "setting": "[3]; [12]", "value": "no grade 4 diarrhea"}, {"measurement": "ECOG grade 3 or 4 leukopenia: number of patients exhibiting toxicity in the first course", "setting": "[3]; CPT-11 90 mg m-2 plus cisplatin 60 mg m-2, 3 patients", "value": 0}, {"measurement": "maximum tolerated dose of CPT-11", "setting": "[3]; CPT-11 i.v. days 1, 8, 15 plus cisplatin 60 mg m-2 day 1, every 28 days", "value": 90, "unit": "mg m-2"}, {"measurement": "leukocyte nadir", "setting": "[3]; [13]", "value": "~21", "unit": "days"}, {"measurement": "recovery from leukocyte nadir in most patients", "setting": "[3]; [13]", "value": "≤ 29", "unit": "days"}, {"measurement": "recommended dose for Phase II studies", "setting": "[3]; CPT-11 days 1, 8, 15 plus cisplatin day 1 at 4-week intervals", "value": 80, "unit": "mg m-2"}, {"measurement": "Grade 3 leukopenia, number of patients", "setting": "[3]; all dose levels, CPT-11 60-90 mg m-2 plus cisplatin 60 mg m-2, 14 patients", "value": "five"}, {"measurement": "Grade 3 leukopenia, number of cycles", "setting": "[3]; all dose levels, CPT-11 60-90 mg m-2 plus cisplatin 60 mg m-2, 33 courses", "value": "six"}, {"measurement": "Hematologic toxicity", "setting": "[3]; [14]", "value": "relatively mild"}, {"measurement": "grade 4 leukopenia, patients", "setting": "[3]; [14]", "value": "none"}, {"measurement": "hepatic, renal, or pulmonary toxicity", "setting": "[3]; [14]", "value": "no evidence"}, {"measurement": "Grade 3 nausea and vomiting, percentage of courses", "setting": "[3]; all dose levels, 10 of 33 courses", "value": 30, "unit": "%"}, {"measurement": "Grade 2 alopecia, percentage of courses", "setting": "[3]; all dose levels, 15 of 33 courses", "value": 45, "unit": "%"}, {"measurement": "Transient eosinophilia ( > 10%), percentage of courses", "setting": "[3]; all dose levels, seven of 33 courses", "value": 21, "unit": "%"}, {"measurement": "Grade 3 anaemia, percentage of courses", "setting": "[3]; all dose levels, two occasions in 33 courses", "value": 6, "unit": "%"}, {"measurement": "AUC of CPT-11", "setting": "[4]; 50 mg m-2", "value": 2.97, "unit": "ytg ml-' x hours"}, {"measurement": "AUC of CPT-11", "setting": "[4]; 100 mg m-2", "value": 6.37, "unit": "ytg ml-' x hours"}, {"measurement": "AUC of CPT-11", "setting": "[4]; 125 mg m-2", "value": 9.17, "unit": "ytg ml-' x hours"}, {"measurement": "AUC of CPT-11", "setting": "[4]; 150 mg m-2", "value": 11.29, "unit": "ytg ml-' x hours"}, {"measurement": "dose intensity achieved as a single agent", "setting": "[4]; weekly intravenous infusion", "value": 100, "unit": "mg m-2 per week"}]}, {"compound": "CCc1c2c(nc3ccc(O)cc13)-c1cc3c(c(=O)n1C2)COC(=O)[C@]3(O)CC", "note": "[SN-38, 7-ethyl-10-hydroxycamptothecin]", "values": [{"measurement": "AUC", "setting": "[2]; human, in vivo, 80 mg", "value": 216, "unit": "ng·h/mL"}, {"measurement": "AUC", "setting": "[2]; human, in vivo, 90 mg", "value": 340, "unit": "ng·h/mL"}, {"measurement": "SN-38 terminal half-life, mean (s.d.)", "setting": "[2]; human, in vivo, 90 mg", "value": "22.13 ? 13.28 h"}, {"measurement": "half-life", "setting": "[2]; human, in vivo, 90 mg", "value": "22.1 ± 13.3", "unit": "h"}, {"measurement": "AUC of SN-38", "setting": "[4]; single-agent CPT-11 50 mg m-2", "value": 117, "unit": "ng ml-1 x hours"}, {"measurement": "AUC of SN-38", "setting": "[4]; single-agent CPT-11 125 mg m-2", "value": 252, "unit": "ng ml-1 x hours"}]}, {"compound": "CN1[C@@H]2CC[C@H]1C[C@@H](OC(=O)C(CO)c1ccccc1)C2", "note": "(stereo partly drawn) [atropine]", "values": [{"measurement": "response of grade 3 diarrhea to antidiarrheal agent", "setting": "[5]", "value": "refractory"}]}, {"compound": "COc1ccc2c3c1O[C@H]1[C@@H](O)C=C[C@H]4[C@@H](C2)N(C)CC[C@@]341", "note": "[codeine phosphate]", "values": [{"measurement": "response of grade 3 diarrhea to antidiarrheal agent", "setting": "[5]", "value": "resistant"}]}, {"compound": "CN1[C@@H]2C[C@@H](OC(=O)[C@H](CO)c3ccccc3)C[C@H]1[C@@H]1O[C@@H]12", "note": "[scopolamine]", "values": [{"measurement": "response of grade 3 diarrhea to antidiarrheal agent", "setting": "[5]", "value": "refractory"}]}, {"compound": "albumin tannate", "values": [{"measurement": "response of grade 3 diarrhea to antidiarrheal agent", "setting": "[5]", "value": "refractory"}]}, {"compound": "sandostatin", "values": [{"measurement": "effect on grade 3 diarrhea induced by CPT-11 plus cisplatin", "setting": "[5]; 50-100 ug subcutaneously t.i.d. for at least 2 days, three patients", "value": "ineffective"}]}]}
